Measured values reported in patent US11278555B2, “Combinational therapies for treatment of cancer comprising a bacteriochlorophyll derivative” (Yeda Research and Development Co. Ltd., priority 2016, dated 2022).

Test system: orthotopic 4T1-Luc tumors
Test: STL-6014 PDT and metronomic Gemzar in mice bearing 4T1-Luc tumors in the mammary pad (Scheme 1): primary tumor, survival, lung metastases, re-challenge
Assay type: in vivo, Balb/c mice
Protocol: • (i) Bacteriochlorophyll Derivatives—The Bchl derivatives and RGD-conjugates thereof were provided by Steba Biotech (Rehovot, Israel). […] Concentration was verified by spectrophotometric measurement. STL-7012 was provided as dipotassium salt. Working solution was prepared by dissolving STL-7012 K^+ salt in 5% mannitol solution (1 mg/ml). […] WST11 was supplied as a powder and kept in the dark at −20° C. Stock was prepared by dissolving WST11 in DDW containing 5% glucose and 0.67% mannitol, aliquoted and lyophilized. Working solution was reconstituted with DDW and the concentration of solution was confirmed spectrophotometrically. Alternatively, Clinical WST11 (batch: P00611, and 10-130611) was supplied as lyophilized formulation. Material was dissolved in 5% dextrose, aliquoted and stored at −20° C. At the day of treatment the aliquot was thawed, filtered and the concentration of solution was confirmed spectrophotometrically. • (ii) Chemotherapeutic drugs preparation and storage—Gemcitabine (GEM, Gemzar®, Lilly) was purchased from a local pharmacy as a powder, dissolved in saline to a concentration of 38 mg/ml, aliquoted and stored at −20° C. Aliquots were thawed, diluted with saline to a desired concentration and used on the same day at a dose of 75 mg/kg. Cyclophosphamide (CTX, Endoxan®, Baxter Oncology Gmbh, Germany) was purchased from a local pharmacy. A stock solution of 20 mg/ml was prepared by dissolving in 0.9% NaCl, aliquoted and stored at −20° C. Aliquots were thawed, diluted with saline if needed to a desired concentration and used on the same day prepared at indicated doses. • (iii) Murine cell lines—Mammary luciferase (luc)-labeled 4T1 cell line (4T1-Luc) was a kind gift from Dr. Zvi Granot (Faculty of Medicine, The Hebrew University of Jerusalem, Israel); melanoma B16-F10 cell line was obtained from the American Type Culture Collection (ATCC, Manassas, Va.); bladder MB49 cell line was a kind gift from James Allison (MSKCC, New York, USA), and luc-labeled MB49-cell line was established using the murine stem cell virus (MSCV)-puromycin-luc-GFP construct (kindly provided by Dr. Emily Cheng, Human Oncology and Pathogenesis Program, MSKCC). 4T1 and MB49 cells were maintained in DMEM medium and B16-F10 cells in RPMI medium supplemented with 1 mmol/L sodium pyruvate, 10% fetal calf serum (FCS), 250 μg/ml hygromycin, 0.06 mg/ml penicillin and 0.1 mg/ml streptomycin. The cells were grown as monolayer at 37° C. in a humidified atmosphere (5% CO2, 95% air). • (iv) Murine tumor models—Female, Balb/c mice (6-8 week old) were grafted either subcutaneously (s.c.) into the right hind leg or orthotopically with 1×10^6 4T1 cells suspended in 50 or 1000 PBS. For the rechallenge study, 2×10^5 4T1 cells were orthotopically grafted. For bladder cancer model, 5×10^4 of MB49 or MB49-luciferase cell line were s.c. injected into the right flank of C57B/6 male mice (7-8 weeks old, Taconic, Hudson, N.Y.) 15 days prior to VTP treatment. For the efficacy study of VTP in immune compromised mice, the same number of MB49 cells was injected in the flank of Rag^−/− on C57B/6 background or C57B/6 male mice (7-8 week old, Jackson Laboratory, Bar Harbor, Me.). […] Whole body imaging of luciferase-transfected tumors and metastases were recorded five minutes following 75 mg Kg^−1 intraperitoneal (i.p.) injection of D-luciferin with respective filter sets. • (vi) PDT treatment protocol: 4T1-Luc cells were grafted in the mammary pad of Balb/c mice. […]

[1] = 120 days follow up, monotherapy

## Nc1ccn([C@@H]2O[C@H](CO)[C@@H](O)C2(F)F)c(=O)n1 [Gemzar, Gemcitabine]
[1]
  primary tumor cure: no primary tumor cure
  survival compared to control (Kaplan-Meier): Extended mice survival
Gemzar only, 75 mg/kg i.p. metronomic
  primary cure: 0%
